Consider 30 compounds from patent US8148367B2 (Takeda Pharmaceutical Company Limited, priority 2008, dated 2012).

In the assay the target is T1, Recombinant human renin (Homo sapiens, UniProt P00797).
T1 construct: isolate the active form (residues 67-406); made in house; host or cells: FreeStyle 293-F cells, transient expression of pcDNA3.1(+)/hREN
T1 sequence (P00797 67-406): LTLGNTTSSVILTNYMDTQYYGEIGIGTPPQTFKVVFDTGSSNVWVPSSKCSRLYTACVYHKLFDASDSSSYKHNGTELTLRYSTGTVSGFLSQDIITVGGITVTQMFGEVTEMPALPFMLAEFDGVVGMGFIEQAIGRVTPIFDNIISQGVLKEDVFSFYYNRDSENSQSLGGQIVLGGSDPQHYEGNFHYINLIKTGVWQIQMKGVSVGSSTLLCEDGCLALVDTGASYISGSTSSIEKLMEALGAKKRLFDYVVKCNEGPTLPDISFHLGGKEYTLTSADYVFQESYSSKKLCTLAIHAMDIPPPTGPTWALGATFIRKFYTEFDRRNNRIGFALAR
In words: In vitro enzymatic activity assay of renin inhibitors (fluorescence, QXL520/HiLyteFluo488 peptide substrate). In kind it is biochemical. The note with it: recombinant human renin 3 nM, 1 μM substrate, pre-incubated 10 minutes at 37° C., incubation one hour, pH 7.4, 5% DMSO; read-out: IC50 of Exemplified Compounds Against Renin.

Each structure is given as a SMILES string.

Consider `CCCCS(=O)(=O)Nc1ccccc1-n1c(-c2ccccc2)c(C(=O)N2CCNC[C@H]2Cc2ccccc2)[nH]c1=O` [Example 128, (R)—N-(2-(4-(2-Benzylpiperazine-1-carbonyl)-2-oxo-5-phenyl-2,3-dihydro-1H-imidazol-1-yl)phenyl)butane-1-sulfonamide], for which the IC50 was less than 0.1 µM.

Turning to `C=CCS(=O)(=O)Nc1ccccc1-n1c(-c2ccccc2)c(C(=O)N2CCNC[C@H]2Cc2ccccc2)[nH]c1=O` [Example 129, (R)—N-(2-(4-(2-Benzylpiperazine-1-carbonyl)-2-oxo-5-phenyl-2,3-dihydro-1H-imidazol-1-yl)phenyl)prop-2-ene-1-sulfonamide], the IC50 was less than 0.1 µM.

For the compound `O=C(c1[nH]c(=O)n(CC2(O)CCCCC2)c1-c1ccccc1)N1CCNC[C@H]1Cc1ccccc1` [Example 130, (R)-4-(2-Benzylpiperazine-1-carbonyl)-1-((1-hydroxycyclohexyl)methyl)-5-phenyl-1H-imidazol-2(3H)-one], the IC50 is less than 0.1 µM.

For `CCCCN1CCCc2ccc(-n3c(-c4ccccc4)c(C(=O)N4CCNC[C@H]4Cc4ccccc4)[nH]c3=O)cc21` [Example 131], the IC50 was less than 0.1 µM.

For `O=C(c1[nH]c(=O)n(-c2ccc3c(c2)NCCC3)c1-c1ccccc1)N1CCNC[C@H]1Cc1ccccc1` [Example 132, (R)-4-(2-Benzylpiperazine-1-carbonyl)-5-phenyl-1-(1,2,3,4-tetrahydroquinolin-7-yl)-1H-imidazol-2(3H)-one], the IC50 is less than 0.1 µM.

`CCCCN1CCCc2ccc(-n3c(C4CC4)c(C(=O)N4CCNC[C@H]4Cc4ccccc4)[nH]c3=O)cc21` [Example 133, (R)-4-(2-Benzylpiperazine-1-carbonyl)-1-(1-butyl-1,2,3,4-tetrahydroquinolin-7-yl)-5-cyclopropyl-1H-imidazol-2(3H)-one]: the IC50 was more than 1 µM.

In the case of `O=C(c1[nH]c(=O)n(-c2ccc3c(c2)NCCC3)c1C1CC1)N1CCNC[C@H]1Cc1ccccc1` [Example 134, (R)-4-(2-Benzylpiperazine-1-carbonyl)-5-cyclopropyl-1-(1,2,3,4-tetrahydroquinolin-7-yl)-1H-imidazol-2(3H)-one], the IC50 was in the range of 0.5 to 1 µM.

For the compound `CN1CCOc2ccc(-n3c(-c4ccccc4)c(C(=O)N4CCNC[C@H]4Cc4ccccc4)[nH]c3=O)cc21` [Example 135, (R)-4-(2-Benzylpiperazine-1-carbonyl)-1-(4-methyl-3,4-dihydro-2H-benzo[b][1,4]oxazin-6-yl)-5-phenyl-1H-imidazol-2(3H)-one], the IC50 was less than 0.1 µM.

Take `O=C(c1[nH]c(=O)n(-c2ccc3c(c2)NCC3)c1-c1ccccc1)N1CCNC[C@H]1Cc1ccccc1` [Example 136, (R)-4-(2-Benzylpiperazine-1-carbonyl)-1-(indolin-6-yl)-5-phenyl-1H-imidazol-2(3H)-one]: the IC50 is less than 0.1 µM.

Regarding `COCCN1CCOc2ccc(-n3c(-c4ccccc4)c(C(=O)N4CCNC[C@H]4Cc4ccccc4)[nH]c3=O)cc21` [Example 137, (R)-4-(2-Benzylpiperazine-1-carbonyl)-1-(4-(2-methoxyethyl)-3,4-dihydro-2H-benzo[b][1,4]oxazin-6-yl)-5-phenyl-1H-imidazol-2(3H)-one], the IC50 was less than 0.1 µM.

For `COC1CCc2ccc(-n3c(-c4ccccc4)c(C(=O)N4CCNC[C@H]4Cc4ccccc4)[nH]c3=O)cc21` (stereo partly drawn) [Example 138, 4-((R)-2-Benzylpiperazine-1-carbonyl)-1-(3-methoxy-2,3-dihydro-1H-inden-5-yl)-5-phenyl-1H-imidazol-2(3H)-one], the IC50 lay within 0.1 to 0.5 µM.

On to `CCOC(=O)N1CCc2ccc(-n3c(-c4ccccc4)c(C(=O)N4CCNC[C@H]4Cc4ccccc4)[nH]c3=O)cc21` [Example 139, (R)-Ethyl 6-(4-(2-benzylpiperazine-1-carbonyl)-2-oxo-5-phenyl-2,3-dihydro-1H-imidazol-1-yl)indoline-1-carboxylate], for which the IC50 is less than 0.1 µM.

Take `O=C(c1[nH]c(=O)n(-c2ccc3c(c2)NCCC3)c1-c1ccccc1)N1CCNC[C@H]1CCOc1ccccc1` [Example 140, (R)-4-(2-(2-Phenoxyethyl)piperazine-1-carbonyl)-5-phenyl-1-(1,2,3,4-tetrahydroquinolin-7-yl)-1H-imidazol-2(3H)-one]: the IC50 is less than 0.1 µM.

Take `C=CCn1c(C(=O)N2CCNCC2)c(-c2ccccc2)n(-c2ccccc2C)c1=O` [Example 141, 1-Allyl-4-phenyl-5-(piperazine-1-carbonyl)-3-o-tolyl-1H-imidazol-2(3H)-one]: the IC50 was more than 1 µM.

Regarding `Cc1ccccc1-n1c(-c2ccccc2)c(C(=O)N2CCNCC2)n(Cc2cccc(Oc3ccccc3)c2)c1=O` [Example 142, 1-(3-Phenoxybenzyl)-4-phenyl-5-(piperazine-1-carbonyl)-3-o-tolyl-1H-imidazol-2(3H)-one], the IC50 lay in the range of 0.1 to 0.5 µM.

For `COc1cccc(Cn2c(C(=O)N3CCNCC3)c(-c3ccccc3)n(-c3ccccc3C)c2=O)c1` [Example 143, 1-(3-Methoxybenzyl)-4-phenyl-5-(piperazine-1-carbonyl)-3-o-tolyl-1H-imidazol-2(3H)-one], the IC50 lay in the range of 0.1 to 0.5 µM.

On to `Cc1ccccc1-n1c(-c2ccccc2)c(C(=O)N2CCNCC2)n(Cc2ccc(F)c(F)c2)c1=O` [Example 144, 1-(3,4-Difluorobenzyl)-4-phenyl-5-(piperazine-1-carbonyl)-3-o-tolyl-1H-imidazol-2(3H)-one], for which the IC50 lay within 0.5 to 1 µM.

Regarding `C=CCn1c(C(=O)N2CCNCC2)c(-c2ccccc2)n(-c2ccccc2OC)c1=O` [Example 145, 1-Allyl-3-(2-methoxyphenyl)-4-phenyl-5-(piperazine-1-carbonyl)-1H-imidazol-2(3H)-one], the concentration for half-maximal inhibition (IC50) is more than 1 µM.

On to `COc1ccccc1-n1c(-c2ccccc2)c(C(=O)N2CCNCC2)n(Cc2cccc(Oc3ccccc3)c2)c1=O` [Example 146, 1-(2-Methoxyphenyl)-3-(3-phenoxybenzyl)-5-phenyl-4-(piperazine-1-carbonyl)-1H-imidazol-2(3H)-one], for which the half-inhibitory concentration (IC50) lay in the range of 0.1 to 0.5 µM.

With `COc1cccc(Cn2c(C(=O)N3CCNCC3)c(-c3ccccc3)n(-c3ccccc3OC)c2=O)c1` [Example 147, 1-(3-Methoxybenzyl)-3-(2-methoxyphenyl)-4-phenyl-5-(piperazine-1-carbonyl)-1H-imidazol-2(3H)-one], the IC50 is more than 1 µM.

Regarding `COc1ccccc1-n1c(-c2ccccc2)c(C(=O)N2CCNCC2)n(Cc2ccc(F)c(F)c2)c1=O` [Example 148, 1-(3,4-Difluorobenzyl)-3-(2-methoxyphenyl)-4-phenyl-5-(piperazine-1-carbonyl)-1H-imidazol-2(3H)-one], the 50% inhibitory concentration (IC50) was more than 1 µM.

In the case of `Cc1ccccc1-n1c(-c2ccccc2)c(C(=O)N2CCNCC2)n(Cc2cccc(OCCOc3ccccc3)c2)c1=O` [Example 149, 1-(3-(2-Phenoxyethoxy)benzyl)-4-phenyl-5-(piperazine-1-carbonyl)-3-o-tolyl-1H-imidazol-2(3H)-one], the IC50 lay within 0.1 to 0.5 µM.

On to `C=CCn1c(C(=O)N2CCNCC2)c(-c2ccccc2)n(-c2cccc(N3CCOCC3)c2)c1=O` [Example 150, 1-Allyl-3-(3-morpholinophenyl)-4-phenyl-5-(piperazine-1-carbonyl)-1H-imidazol-2(3H)-one], for which the IC50 is more than 1 µM.

Turning to `COc1cccc(Cn2c(C(=O)N3CCNCC3)c(-c3ccccc3)n(-c3cccc(N4CCOCC4)c3)c2=O)c1` [Example 151, 1-(3-Methoxybenzyl)-3-(3-morpholinophenyl)-4-phenyl-5-(piperazine-1-carbonyl)-1H-imidazol-2(3H)-one], the IC50 lay within 0.1 to 0.5 µM.

Regarding `O=C(c1c(-c2ccccc2)n([C@H]2CCCC[C@H]2O)c(=O)n1Cc1cccc(Oc2ccccc2)c1)N1CCNCC1` [Example 152, 1-((1S,2R)-2-Hydroxycyclohexyl)-3-(3-phenoxybenzyl)-5-phenyl-4-(piperazine-1-carbonyl)-1H-imidazol-2(3H)-one], the IC50 is 0.5 to 1 µM.

Consider `COc1cccc(Cn2c(C(=O)N3CCNCC3)c(-c3ccccc3)n([C@H]3CCCC[C@H]3O)c2=O)c1` [Example 153, 1-((1S,2R)-2-Hydroxycyclohexyl)-3-(3-methoxybenzyl)-5-phenyl-4-(piperazine-1-carbonyl)-1H-imidazol-2(3H)-one], for which the IC50 was more than 1 µM.

For the compound `O=C(c1c(-c2ccccc2)n([C@H]2CCCC[C@H]2O)c(=O)n1Cc1ccc(F)c(F)c1)N1CCNCC1` [Example 154, 1-(3,4-Difluorobenzyl)-3-((1S,2R)-2-hydroxycyclohexyl)-4-phenyl-5-(piperazine-1-carbonyl)-1H-imidazol-2(3H)-one], the IC50 is more than 1 µM.

Take `Cc1ccccc1-n1c(-c2ccccc2)c(C(=O)N2CCNCC2)n(CCNS(=O)(=O)c2ccccc2)c1=O` [Example 155, N-(2-(2-oxo-4-Phenyl-5-(piperazine-1-carbonyl)-3-o-tolyl-2,3-dihydro-1H-imidazol-1-yl)ethyl)benzenesulfonamide]: the 50% inhibitory concentration (IC50) was more than 1 µM.

Turning to `Cc1ccccc1-n1c(-c2ccccc2)c(C(=O)N2CCNCC2)n(CCCNC(=O)c2ccccc2)c1=O` [Example 156, N-(3-(2-oxo-4-Phenyl-5-(piperazine-1-carbonyl)-3-o-tolyl-2,3-dihydro-1H-imidazol-1-yl)propyl)benzamide], the IC50 is more than 1 µM.

As for `O=C(c1c(-c2ccccc2)n([C@H]2CCCC[C@H]2O)c(=O)n1CC1CCCCC1)N1CCNCC1` [Example 157, 1-(Cyclohexylmethyl)-3-((1S,2R)-2-hydroxycyclohexyl)-4-phenyl-5-(piperazine-1-carbonyl)-1H-imidazol-2(3H)-one], the IC50 is more than 1 µM.
